The values that follow come from ChEMBL document CHEMBL1150107, “Isolation and in vitro antiplasmodial activities of alkaloids from Teclea trichocarpa: in vivo antimalarial activity and X-ray crystal structure of normelicopicine” (J Nat Prod, 2002).

In data set [1] the test system is Plasmodium falciparum. Nature of the data set: Antiplasmodial activity against chloroquine-resistant Plasmodium falciparum K1 after 48 hrs by LDH activity. The class given is functional, organism-based. Conditions: K1, 48 h.
Data set [2] has as its system Plasmodium falciparum. Nature of the data set: Antiplasmodial activity against chloroquine-sensitive Plasmodium falciparum HB3 after 48 hrs by LDH reporter activity. The class given is functional, organism-based. To be noted: HB3, 48 h.
Data set [3] concerns Plasmodium berghei. Nature of the data set: Antimalarial activity as reduced parasitaemia at day 5 against Plasmodium berghei ANKA infected in BALB/c mice (Mus musculus) at 10 mg/kg/day intraperitoneal dose over 4 days. The class given is functional. Further details: scale not given: the % may be the effect or the level left.
The test system of another data set is KB. Nature of the data set: Cytotoxicity against human KB cells by alamar blue assay. The class given is cell-based.
Data set [4] can be described thus: Selectivity index, ratio of IC50 for human KB cells to IC50 for chloroquine-sensitive Plasmodium falciparum HB3. To be noted: read-out: Ratio IC50. The class given is toxicity, cell-based.
Data set [5] in a line: Selectivity index, ratio of IC50 for human KB cells to IC50 for chloroquine-resistant Plasmodium falciparum K1. The class given is toxicity, cell-based. Conditions: read-out: Ratio IC50.
Data set [6] has as its system Plasmodium berghei. Briefly: Antimalarial activity as reduced parasitaemia at day 5 against Plasmodium berghei ANKA infected BALB/c mice (Mus musculus) at 25 mg/kg/day intraperitoneal dose over 4 days. The class given is functional. Further details: scale not given: the % may be the effect or the level left.

For `COc1c2c(cc3c1c(=O)c1cccc(OC)c1n3C)OCO2` [TECLEANTHINE], the IC50 in the data set with Plasmodium falciparum [1] turned out to be 53 µM; in the data set with Plasmodium falciparum [2] it was 23.2 µM.

Consider `COc1ccc2c(OC)c3ccoc3nc2c1OC` [SKIMMIANINE], for which the IC50 in the data set on Plasmodium falciparum [1] was determined as 59 µM; with Plasmodium falciparum [2], 47.5 µM.

Consider `CCN(CC)CCCC(C)Nc1ccnc2cc(Cl)ccc12.O=P(O)(O)O.O=P(O)(O)O` (stereo not drawn) [CHLOROQUINE PHOSPHATE], for which the Activity with Plasmodium berghei [3] was 100%.

As for `COc1c(OC)c(OC)c2c(c1OC)c(=O)c1ccccc1n2C` [MELICOPICINE], the IC50 in the data set with Plasmodium falciparum [1] and in the data set with Plasmodium falciparum [2] was > 100 µM each time.

As for `COc1cc2c(c(O)c1OC)c(=O)c1ccccc1n2C` [ARBORININE], the IC50 with Plasmodium falciparum [1] amounted to 9.34 µM; in the data set on Plasmodium falciparum [2], 3.85 µM.

In the data set with KB, `COc1cc([C@@H]2c3cc4c(cc3[C@H](O)[C@H]3COC(=O)[C@H]23)OCO4)cc(OC)c1OC` [PODOFILOX] registered an IC50 of 0.0048 µM.

In the case of `COc1c(OC)c(OC)c2c(c1O)c(=O)c1ccccc1n2C` [NORMELICOPICINE], the selectivity ratio turned out to be 22 in data set [4] and 40 in data set [5]. The IC50 with Plasmodium falciparum [1] is 14.7 µM; in the data set with Plasmodium falciparum [2] it was 8.25 µM; in the data set with KB, > 328 µM. For the same compound, in the data set on Plasmodium berghei [6], the Activity was found to be 32.1%.

For the compound `COc1ccc2c(=O)c3c(OC)c4c(cc3n(C)c2c1OC)OCO4`, the figures for the IC50 with Plasmodium falciparum [1] and in the data set on Plasmodium falciparum [2] were 56.9 µM and 32.3 µM, respectively.
